35 compounds from patent US20210078988A1, “MODULATORS OF INDOLEAMINE 2,3-DIOXYGENASE” (GLAXOSMITHKLINE INTELLECTUAL PROPERTY DEVELOPMENT LIMITED, priority 2017, published 2021) can be followed below.

The target of the experiment is T1, indoleamine 2, 3-dioxygenase (IDO1) (Homo sapiens, UniProt P14902).
T1 construct: human peripheral blood mononuclear cells (PBMC) (PB003F; host or cells: human PBMC stimulated with IFN-gamma and LPS
T1 sequence (P14902 whole entry): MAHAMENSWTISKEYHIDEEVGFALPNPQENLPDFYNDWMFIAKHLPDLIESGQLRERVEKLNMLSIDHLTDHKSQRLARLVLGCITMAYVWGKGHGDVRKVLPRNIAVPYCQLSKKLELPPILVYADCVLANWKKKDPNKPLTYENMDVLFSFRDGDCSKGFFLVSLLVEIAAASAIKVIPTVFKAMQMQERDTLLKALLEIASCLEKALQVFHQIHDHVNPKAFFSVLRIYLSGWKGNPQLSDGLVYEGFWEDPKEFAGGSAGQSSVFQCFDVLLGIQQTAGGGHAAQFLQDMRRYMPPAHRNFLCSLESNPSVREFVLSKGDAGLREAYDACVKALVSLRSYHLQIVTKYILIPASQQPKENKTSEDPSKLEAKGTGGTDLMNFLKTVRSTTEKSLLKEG
Briefly: PBMC IDO1 assay (kynurenine detection via mass spectrometry). The experiment is classed as cell-based. As to conditions: human PBMC stimulated with IFN-γ and LPS, 2 days, kynurenine by mass spectrometry; read-out: IDO1 PBMC pIC50 (converted). The procedure, abridged:
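Kynurenine output, read by RapidFire mass spectrometry as a ratio to internal standard, reflected IDO1 activity in human PBMCs induced with 100 ng/ml IFN-γ plus 50 ng/ml LPS and dosed with compound (11 points, 3-fold) over 2 days. Cytotoxicity was tracked by CellTiter-Glo; XC50 values came from Hill-slope fits.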
Regarding `CC(C)CC(CC1CCN(C(=O)OC(C)(C)C)CC1)NC(=O)c1ccc(F)s1` (centres unmarked) [Example 79, tert-butyl 4-(2-(5-fluorothiophene-2-carboxamido)-4-methylpentyl)piperidine-1-carboxylate], the IC50 is 15.8 nM.

Consider `Cc1ccc(C(=O)NC(CC2CCN(C(=O)OC(C)(C)C)CC2)C2CCCCC2)s1` (centres unmarked) [Example 80, tert-butyl 4-(2-cyclohexyl-2-(5-methylthiophene-2-carboxamido)ethyl)piperidine-1-carboxylate], for which the IC50 is 15.8 nM.

As to `CCOC(=O)N1CCC(C[C@H](NC(=O)c2ccc(Cl)cc2)c2ccccc2)CC1` [Example 81, (S)-ethyl 4-(2-(4-chlorobenzamido)-2-phenylethyl)piperidine-1-carboxylate], the IC50 was 15.8 nM.

Take `CCN(CCOC)c1nnc(C(CC2CCN(C(=O)OC(C)(C)C)CC2)NC(=O)c2ccc(C)s2)o1` (centres unmarked) [Example 82, tert-butyl 4-(2-(5-(ethyl(2-methoxyethyl)amino)-1,3,4-oxadiazol-2-yl)-2-(5-methylthiophene-2-carboxamido)ethyl)piperidine-1-carboxylate]: the IC50 is 15.8 nM.

Turning to `CC(C)(C)OC(=O)N1CCC(C[C@@H](CCNCc2ccccc2)NC(=O)c2ccc(Cl)s2)CC1` [Example 83, (S)-tert-butyl 4-(4-(benzylamino)-2-(5-chlorothiophene-2-carboxamido)butyl)piperidine-1-carboxylate], the IC50 is 15.8 nM.

With `CC(C)(C)OC(=O)N1CCC(CC(NC(=O)c2ccc(Cl)c(F)c2)c2ccccc2)CC1` (centres unmarked) [Example 84, tert-butyl 4-(2-(4-chloro-3-fluorobenzamido)-2-phenylethyl)piperidine-1-carboxylate], the IC50 is 20 nM.

As to `CCOC(=O)N1CCC(CC(NC(=O)c2ccc(F)cc2)c2ccc(OC)nc2)CC1` (centres unmarked) [Example 85, ethyl 4-(2-(4-fluorobenzamido)-2-(6-methoxypyridin-3-yl)ethyl)piperidine-1-carboxylate], the IC50 is 20 nM.

In the case of `C#CCOc1ccc(C(=O)NC(CC2CCN(C(=O)OC(C)(C)C)CC2)c2ccccc2)cc1` (centres unmarked) [Example 86, tert-butyl 4-(2-phenyl-2-(4-(prop-2-yn-1-yloxy)benzamido)ethyl)piperidine-1-carboxylate], the IC50 was 20 nM.

On to `CCCc1ccc(C(=O)NC(CC2CCN(C(=O)OC(C)(C)C)CC2)c2ccccc2)s1` (centres unmarked) [Example 87, tert-butyl 4-(2-phenyl-2-(5-propylthiophene-2-carboxamido)ethyl)piperidine-1-carboxylate], for which the IC50 was 20 nM.

Consider `CC(C)C(CC1CCN(C(=O)OC(C)(C)C)CC1)NC(=O)c1ccc(Cl)cc1` (centres unmarked) [Example 88, tert-butyl 4-(2-(4-chlorobenzamido)-3-methylbutyl)piperidine-1-carboxylate], for which the IC50 was 20 nM.

`CCCOC(=O)N1CCC(CC(NC(=O)c2ccc(Cl)cc2)c2ccccc2)CC1` (centres unmarked) [Example 89, propyl 4-(2-(4-chlorobenzamido)-2-phenylethyl)piperidine-1-carboxylate]: the IC50 is 20 nM.

As to `CC(C)(C)OC(=O)N1CCC(C[C@H](NC(=O)c2ccc(Cl)cc2)C2CC2)CC1` [Example 90, (S)-tert-butyl 4-(2-(4-chlorobenzamido)-2-cyclopropylethyl)piperidine-1-carboxylate], the IC50 is 20 nM.

For `CC(C)(C)OC(=O)N1CCC(CC(NC(=O)c2ccc(Br)cc2)C2CCCCC2)CC1` (centres unmarked) [Example 91, tert-butyl 4-(2-(4-bromobenzamido)-2-cyclohexylethyl)piperidine-1-carboxylate], the IC50 is 20 nM.

For the compound `CC(C)(C)OC(=O)N1CCC(CC(NC(=O)c2ccc(F)s2)C2CCCCC2)CC1` (centres unmarked) [Example 92, tert-butyl 4-(2-cyclohexyl-2-(5-fluorothiophene-2-carboxamido)ethyl)piperidine-1-carboxylate], the IC50 is 20 nM.

With `Cc1ccc(C(=O)NC(CC2CCN(C(=O)C(F)(F)c3ccccc3)CC2)c2ccccc2)s1` (centres unmarked) [Example 93, N-(2-(1-(2,2-difluoro-2-phenylacetyl)piperidin-4-yl)-1-phenylethyl)-5-methylthiophene-2-carboxamide], the IC50 was 20 nM.

`Cc1ccc(C(=O)NC(CC2CCN(C(=O)C(F)(F)F)CC2)c2ccccc2)s1` (centres unmarked) [Example 94, 5-methyl-N-(1-phenyl-2-(1-(2,2,2-trifluoroacetyl)piperidin-4-yl)ethyl)thiophene-2-carboxamide]: the IC50 is 20 nM.

On to `CCC(F)(F)C(=O)N1CCC(CC(NC(=O)c2ccc(C)s2)c2ccccc2)CC1` (centres unmarked) [Example 95, N-(2-(1-(2,2-difluorobutanoyl)piperidin-4-yl)-1-phenylethyl)-5-methylthiophene-2-carboxamide], for which the IC50 was 20 nM.

Regarding `CCCCN(CC)c1nnc(C(CC2CCN(C(=O)OC(C)(C)C)CC2)NC(=O)c2ccc(C)s2)o1` (centres unmarked) [Example 96, tert-butyl 4-(2-(5-(butyl(ethyl)amino)-1,3,4-oxadiazol-2-yl)-2-(5-methylthiophene-2-carboxamido)ethyl)piperidine-1-carboxylate], the IC50 is 20 nM.

Turning to `CC(C)(C)OC(=O)N1CCC(CC(NC(=O)c2ccc(C3CC3)cc2)c2ccccc2)CC1` (centres unmarked) [Example 97, tert-butyl 4-(2-(4-cyclopropylbenzamido)-2-phenylethyl)piperidine-1-carboxylate], the IC50 was 25.1 nM.

In the case of `CC(C)(C)OC(=O)N1CCC(CC(NC(=O)c2ccc(C3CC3)s2)c2ccccc2)CC1` (centres unmarked) [Example 98, tert-butyl 4-(2-(5-cyclopropylthiophene-2-carboxamido)-2-phenylethyl)piperidine-1-carboxylate], the IC50 is 25.1 nM.

Take `CC(C)C(CC1CCN(C(=O)OC(C)(C)C)CC1)NC(=O)c1ccc(Cl)s1` (centres unmarked) [Example 99, tert-butyl 4-(2-(5-chlorothiophene-2-carboxamido)-3-methylbutyl)piperidine-1-carboxylate]: the IC50 is 25.1 nM.

Turning to `O=C(NC(CC1CCN(C(=O)OC2CCCC2)CC1)c1ccccc1)c1ccc(Cl)cc1` (centres unmarked) [Example 100, cyclopentyl 4-(2-(4-chlorobenzamido)-2-phenylethyl)piperidine-1-carboxylate], the IC50 was 25.1 nM.

As to `CC(C)(C)OC(=O)N1CCC(CC(NC(=O)c2ccc(I)c(F)c2)c2ccccc2)CC1` (centres unmarked) [Example 101, tert-butyl 4-(2-(3-fluoro-4-iodobenzamido)-2-phenylethyl)piperidine-1-carboxylate], the IC50 is 25.1 nM.

As for `CCOC(=O)N1CCC(CC(NC(=O)c2ccc(Cl)cc2)c2ccccc2)CC1` (centres unmarked) [Example 102, ethyl 4-(2-(4-chlorobenzamido)-2-phenylethyl)piperidine-1-carboxylate], the IC50 was 25.1 nM.

As to `CC(C)OC(=O)N1CCC(CC(NC(=O)c2ccc(Cl)cc2)c2ccccc2)CC1` (centres unmarked) [Example 103, isopropyl 4-(2-(4-chlorobenzamido)-2-phenylethyl)piperidine-1-carboxylate], the IC50 is 25.1 nM.

As to `O=C(NC(CC1CCN(C(=O)Oc2ccccc2)CC1)c1ccccc1)c1ccc(Cl)cc1` (centres unmarked) [Example 104, phenyl 4-(2-(4-chlorobenzamido)-2-phenylethyl)piperidine-1-carboxylate], the IC50 was 25.1 nM.

For `O=C(NC(CC1CCN(C(=O)OCC2CC2)CC1)c1ccccc1)c1ccc(Cl)cc1` (centres unmarked) [Example 105, cyclopropylmethyl 4-(2-(4-chlorobenzamido)-2-phenylethyl)piperidine-1-carboxylate], the IC50 was 25.1 nM.

As to `CCc1ccc(C(=O)NC(CC2CCN(C(=O)OC(C)(C)C)CC2)C2CCCCC2)s1` (centres unmarked) [Example 106, tert-butyl 4-(2-cyclohexyl-2-(5-ethylthiophene-2-carboxamido)ethyl)piperidine-1-carboxylate], the IC50 was 25.1 nM.

Consider `CC(C)(C)OC(=O)N1CCC(CC(NC(=O)c2ccc(F)cc2)c2ccccc2)CC1` (centres unmarked) [Example 107, tert-butyl 4-(2-(4-fluorobenzamido)-2-phenylethyl)piperidine-1-carboxylate], for which the IC50 was 31.6 nM.

In the case of `CCOC(=O)N1CCC(CC(NC(=O)c2ccc(F)cc2)C2CC2)CC1` (centres unmarked) [Example 108, ethyl 4-(2-cyclopropyl-2-(4-fluorobenzamido)ethyl)piperidine-1-carboxylate], the IC50 is 31.6 nM.

With `COc1ccc(C(=O)NC(CC2CCN(C(=O)OC(C)(C)C)CC2)c2ccccc2)cc1F` (centres unmarked) [Example 109, tert-butyl 4-(2-(3-fluoro-4-methoxybenzamido)-2-phenylethyl)piperidine-1-carboxylate], the IC50 is 31.6 nM.

On to `CC(C)(C)OC(=O)N1CCC(CC(NC(=O)c2ccc(C(F)(F)F)cc2)c2ccccc2)CC1` (centres unmarked) [Example 110, tert-butyl 4-(2-phenyl-2-(4-(trifluoromethyl)benzamido)ethyl)piperidine-1-carboxylate], for which the IC50 is 31.6 nM.

For `COc1ccc(C(CC2CCN(C(=O)OC(C)(C)C)CC2)NC(=O)c2ccc(SC)cc2)cn1` (centres unmarked) [Example 111, tert-butyl 4-(2-(6-methoxypyridin-3-yl)-2-(4-(methylthio)benzamido)ethyl)piperidine-1-carboxylate], the IC50 is 31.6 nM.

As for `CCN(CC)c1nnc(C(CC2CCN(C(=O)OC(C)(C)C)CC2)NC(=O)c2ccc(F)cc2)o1` (centres unmarked) [Example 112, tert-butyl 4-(2-(5-(diethylamino)-1,3,4-oxadiazol-2-yl)-2-(4-fluorobenzamido)ethyl)piperidine-1-carboxylate], the IC50 was 31.6 nM.

`COCCN(C)c1nnc(C(CC2CCN(C(=O)OC(C)(C)C)CC2)NC(=O)c2ccc(Cl)s2)o1` (centres unmarked) [Example 113, tert-butyl 4-(2-(5-chlorothiophene-2-carboxamido)-2-(5-((2-methoxyethyl)(methyl)amino)-1,3,4-oxadiazol-2-yl)ethyl)piperidine-1-carboxylate]: the IC50 was 31.6 nM.
